Source: patent publication US20100179344A1, “2-Alkylidene-18,19-Dinor-Vitamin D Compounds” (WISCONSIN ALUMNI RESEARCH FOUNDATION, priority 2004, published 2010)

Legend:
[1] = target: T1, 1α,25-dihydroxyvitamin D pig intestinal nuclear receptor (Rattus norvegicus, UniProt P13053); test: Competitive VDR binding; conditions: competition with 3H-1,25(OH)2D3; FIG. 1
T1 construct: Full-length recombinant rat receptor was expressed in E. coli; His tag (C); made in house; host or cells: E. coli BL21 (DE3) Codon Plus RIL
T1 sequence (P13053 1-423): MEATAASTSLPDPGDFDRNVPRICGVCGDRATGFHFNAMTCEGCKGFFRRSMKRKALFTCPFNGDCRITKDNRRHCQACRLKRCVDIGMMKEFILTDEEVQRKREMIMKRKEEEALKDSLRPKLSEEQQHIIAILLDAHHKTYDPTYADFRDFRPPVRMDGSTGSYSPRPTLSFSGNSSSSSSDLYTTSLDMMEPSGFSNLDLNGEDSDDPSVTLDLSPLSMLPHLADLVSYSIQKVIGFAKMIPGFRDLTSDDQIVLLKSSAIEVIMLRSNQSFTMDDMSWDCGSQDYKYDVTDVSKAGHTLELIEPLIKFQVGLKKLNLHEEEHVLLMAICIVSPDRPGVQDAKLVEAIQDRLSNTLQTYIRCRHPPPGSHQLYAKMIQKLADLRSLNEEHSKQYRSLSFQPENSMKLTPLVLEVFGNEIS
Method: Competitive binding of the analogs to the porcine intestinal receptor was carried out by the method described by Dame et al (Biochemistry 25, 4523-4534, 1986).
Full-length recombinant rat receptor was expressed in E. coli BL21 (DE3) Codon Plus RIL cells and purified using two different column chromatography systems. The first system was a nickel affinity resin that utilized the C-terminal histidine tag on this protein. The protein that was eluted from this resin was further purified using ion exchange chromatography (S-Sepharose Fast Flow). Aliquots of the purified protein were quick frozen in liquid nitrogen and stored at −80° C. until use. […]
Unlabeled ligands were dissolved in ethanol and the concentrations determined using UV spectrophotometry. […]
Radiolabeled and unlabeled ligands were added to 100 mcl of the diluted protein, mixed and incubated overnight on ice to reach binding equilibrium. […] Total binding was determined from the tubes containing only radiolabeled ligand. The percentage of competition was calculated by subtracting the number of dpm remaining in the hydroxylapatite pellet from the total number of dpm bound, dividing by the total number of dpm bound and multiplying by one hundred. Duplicate tubes were prepared and analyzed for each test concentration.

HL-60 cells = test: HL-60 cell differentiation (NBT reduction); assay type: cell-based, human; conditions: FIG. 2; for percent of HL-60 cells induced to differentiate: NBT assay, concentration 1×10^−7M
Method: The differentiation of HL-60 promyelocytic into monocytes was determined as described by Ostrem et al (J. Biol. Chem. 262, 14164-14171, 1987).
The study drugs were dissolved in ethanol and the concentrations determined using UV spectrophotometry (2MD:molar extinction coefficient=42,000 and Imax=252 nm; 1,25(OH)2D3:molar extinction=18,200 and Imax=265 nm). Serial dilutions were prepared so that a range of drug concentrations could be tested without changing the final concentration of ethanol (<0.2%) present in the cell cultures.
Human promyelocytic leukemia (HL60) cells were grown in RPMI-1640 medium containing 10% fetal bovine serum. The cells were incubated at 37° C. in the presence of 5% CO2.
HL60 cells were plated at 1.2×10^5 cells/ml. Eighteen hours after plating, the cells were administered the drug in ethanol. Four days post-dose, the cells were harvested and a nitro blue tetrazolium reduction assay was performed (Collins et al., 1979; J. Exp. Med. 149:969-974, Appendix A). The percentage of differentiated cells was determined by counting a total of 200 cells and recording the number that contained intracellular black-blue formazan deposits. Verification of differentiation to monocytic cells was determined by measuring phagocytic activity (data not shown). All drug concentrations were tested in duplicate.
This is illustrated by the biological assay results obtained for (20S)-2-methylene-18,19-dinor-1α,25-dihydroxy-vitamin D3 which is summarized in FIGS. 2 through 6. […] Differentiation activity was assessed by a standard differentiation assay, abbreviated as NBT reduction (nitroblue tetrazolium reduction). The assay was conducted according to known procedures, as given, for example, by DeLuca et al U.S. Pat. No. 4,717,721 and Ostrem et al, J. Biol. Chem. 262, 14164, 1987. For the assay, the differentiation activity of the test compounds is expressed in terms of the percent of HL-60 cells having differentiated to normal cells in response to a given concentration of test compound.

[2] = test system: 24-hydroxylase (24OHase) gene promoter in ROS 17/2.8 (bone) cells; test: Transcription activation, 24-hydroxylase promoter luciferase reporter; assay type: cell-based; conditions: luciferase 16 h after dosing, FIG. 3
Method: Transcriptional activity was measured in ROS 17/2.8 (bone) cells that were stably transfected with a 24-hydroxylase (24OHase) gene promoter upstream of a luciferase reporter gene (Arbour et al., 1998). Cells were given a range of doses. Sixteen hours after dosing the cells were harvested and luciferase activities were measured using a luminometer.
“RLU” in FIG. 3 refers to relative luciferase units.

[3] = Intestinal calcium transport (everted gut sac); assay type: in vivo, rat; conditions: male Sprague-Dawley rats, low calcium diet, four intraperitoneal doses; FIG. 4
Description: (§1) Weanling, male Sprague-Dawley rats were purchased from Harlan. Upon receipt, the animals were identified by individual tail marks and fed a calcium containing (0.47%) diet (Suda et al., Purified Rodent Diet-Diet 11; Appendix A) for one week before switching to the same diet devoid of calcium (0.02%). Water and a purified rodent diet (Diet 11; Appendix A) containing either 0.47% or 0.02% calcium and 0.3% phosphorus were provided ad libitum. Animals were fed the purified diet containing 0.47% calcium for the first week and then the 0.02% calcium containing diet for the next three weeks of the study. The rats were then fed 0.47% calcium containing diet for one week before switching back to 0.02% calcium containing diet for the remainder of the study. During the second week back on 0.02% calcium containing diet, dose administration began. All doses were administered intraperitoneally in 100 microliters of propylene glycol. Four consecutive doses were given approximately 24 hours apart. […] The level of calcium was determined by diluting the serum into 0.1% lanthum chloride and measuring the absorbance on an atomic absorption spectrophotometer (Perkin Elmer Model 3110, Shelton, Conn.). Twenty-four hours after the last dose, intestinal calcium transport was assessed ex vivo using the everted gut sac technique.

[4] = Bone calcium mobilization (serum calcium); assay type: in vivo, rat; conditions: male Sprague-Dawley rats, low calcium diet, four intraperitoneal doses; FIGS. 5 and 6
Description: as §1, with “diet, the animals were tail-bled (baseline serum calcium) and then” for “diet,”, “was initiated.” for “began.”, “apart. Twenty-four hours after the last dose, blood was collected from the tail artery of each experimental animal.” for “apart.”, “Conn.).” for “Conn.). Twenty-four hours after the last dose, intestinal calcium transport was assessed ex vivo using the everted gut sac technique.”

| SMILES | activity in binding to the 1α,25-dihydroxyvitamin D3 receptor [1] | potency in promoting differentiation of leukemia cells compared with 1α,25-dihydroxyvitamin D3 (HL-60 cells; HL-60 cells) | percent of HL-60 cells induced to differentiate (HL-60 cells) | transcriptional activity compared with 1α,25-dihydroxyvitamin D3 [2] | intestinal calcium transport activity compared with 1α,25-dihydroxyvitamin D3 [3] | ability to mobilize calcium from bone compared with 1α,25-dihydroxyvitamin D3 [4] |
| --- | --- | --- | --- | --- | --- | --- |
| C=C1[C@H](O)CC(=C/C=C2\CCC[C@@H]3C([C@@H](C)CCCC(C)(C)O)CC[C@@H]23)C[C@H]1O (stereo partly drawn) [DP035, (20S)-2-methylene-18,19-dinor-1α,25-dihydroxyvitamin D3] | very active | more potent | the same degree of differentiation | higher transcriptional activity | as active as | clearly not as active |
| C=C1/C(=C\C=C2/CCC[C@]3(C)[C@@H]([C@H](C)CCCC(C)(C)O)CC[C@@H]23)C[C@@H](O)C[C@@H]1O [C001, 1α,25-dihydroxyvitamin D3, reference compound] |  |  | ~90% |  |  |  |
